Assays:
PC3 cell line = experiment: In vitro antitumor MTT assay, PC3; type: cell-based; details: Homo sapiens, PC-3; read-out: IC50 (µM) PC3
Protocol: (§3) The antitumor activity was performed by using the tetrazolium salt 3-(4,5-dimethyl-2-thiazolyl)-2,5-diphenyl-2H-tetrazolium bromide (MTT) assay in accordance with an established method[39].

HePG2 cell line = experiment: In vitro antitumor MTT assay, HePG2; type: cell-based; details: Homo sapiens, HepG2; read-out: IC50 (µM) HePG2
Protocol: (§1) The antitumor activity was performed by using the tetrazolium salt 3-(4,5-dimethyl-2-thiazolyl)-2,5-diphenyl-2H-tetrazolium bromide (MTT) assay in accordance with an established method.
(§2) Compounds 3a–c, 4a,b, 5a,b, 6a,b, 7a–e, 8, 9a–c, 10, 11, 12a–c, 13, and 14 were screened for their in vitro antitumor activity by using the standard 3-(4,5-dimethylthiazol-2-yl)-2,5-diphenyltetrazolium bromide (MTT) assay against five human cancers: HePG2, HCT-116, MCF-7, PC3, and HeLa cell lines. […].

MCF-7 cell line = experiment: In vitro antitumor MTT assay, MCF-7; type: cell-based; details: Homo sapiens, MCF7; read-out: IC50 (µM) MCF-7
Protocol: as §3

HCT-116 cell line = experiment: In vitro antitumor MTT assay, HCT-116; type: cell-based; details: Homo sapiens, HCT-116; read-out: IC50 (µM) HCT-116
Protocol: as §3

HeLa cell line = experiment: In vitro antitumor MTT assay, HeLa; type: cell-based; details: Homo sapiens; read-out: IC50 (µM) HeLa
Protocol: as §1, §2

[1] = test system: HePG2, HCT-116, MCF-7, PC3, and HeLa cell lines; experiment: In vitro antitumor MTT assay, panel of five human cancer cell lines (text summaries); type: cell-based; details: Homo sapiens, range over (all or some of) HePG2, HCT-116, MCF-7, PC3, HeLa; read-out: IC50, antitumor activity, range over the tested cancer cell lines
Protocol: as §1, §2

Row | Compound | IC50 (PC3 cell line) [µM] | IC50 (HePG2 cell line) [µM] | IC50 (MCF-7 cell line) [µM] | IC50 (HCT-116 cell line) [µM] | melting point [°C] | IC50 (HeLa cell line) [µM] | IC50 [1] [µM]
1 | COc1ccc(C(=S)N2CCN(C(=O)OC(C)(C)C)CC2)cc1OC1CCCC1 [Compound 9c, tert-Butyl 4-(3-(cyclopentyloxy)-4-methoxyphenylcarbonothioyl)piperazine-1-carboxylate] | 33.4 ± 2.6 | 36.3 ± 2.5 | 48.9 ± 2.3 | 52.9 ± 2.7 | 191 to 193 | 40.6 ± 2.8 | 33.4 to 52.9
2 | COc1ccc(-c2cc(-c3ccc(Cl)c(Cl)c3)[nH]c(=O)c2C#N)cc1OC1CCCC1 [Compound 12c, 4-(3-(Cyclopentyloxy)-4-methoxyphenyl)-6-(3,4-dichlorophenyl)-2-oxo-1,2-dihydropyridine-3-carbonitrile] | 73.5 ± 3.8 | 59.6 ± 4 | 66.1 ± 3.7 | 83.4 ± 4.3 | > 300 | 62.8 ± 3.9 | –
3 | COc1ccc(C=C2CCCCC2=O)cc1OC1CCCC1 [Compound 3b, 2-(3-(Cyclopentyloxy)-4-methoxybenzylidene)cyclohexanone] | 19.3 ± 1.8 | 53.9 ± 3.7 | 23.8 ± 1.5 | 80.6 ± 3.9 | 245 to 247 | 26.1 ± 1.9 | –
4 | COc1ccc(C=C2CCCCCC2=O)cc1OC1CCCC1 [Compound 3c, 2-(3-(Cyclopentyloxy)-4-methoxybenzylidene)cycloheptanone] | > 100 | 86.9 ± 4.5 | > 100 | 93.5 ± 5.1 | 250 to 252 | 81.7 ± 4.7 | –
5 | COc1ccc(C2NC(=S)NC3=C2CCCC3)cc1OC1CCCC1 (stereo not drawn) [Compound 5a, 4-(3-(Cyclopentyloxy)-4-methoxyphenyl)-3,4,5,6,7,8-hexahydroquinazoline-2(1H)-thione] | 79 ± 4.1 | 73.4 ± 3.7 | 92.4 ± 5.2 | 66.5 ± 3.8 | 199 to 201 | 84.3 ± 4.6 | –
6 | COc1cccc2c1C(=O)c1c(O)c3c(c(O)c1C2=O)C[C@@](O)(C(=O)CO)C[C@@H]3O[C@H]1C[C@H](N)[C@H](O)[C@H](C)O1 [DOX, doxorubicin, reference compound] | – | – | – | – | – | – | 4.17 to 8.87
7 | CN(C)C/C=C/C(=O)Nc1cc2c(Nc3ccc(F)c(Cl)c3)ncnc2cc1O[C@H]1CCOC1 [Afatinib, afatinib, reference compound] | 7.7 ± 0.57 | 5.4 ± 0.25 | 7.1 ± 0.49 | 11.4 ± 1.26 | – | 6.2 ± 0.67 | 5.4 to 11.4
8 | COc1ccc(-c2cc(-c3ccc(C)cc3)[nH]c(=O)c2C#N)cc1OC1CCCC1 [Compound 12b, 4-(3-(cyclopentyloxy)-4-methoxyphenyl)-2-oxo-6-(p-tolyl)-1,2-dihydropyridine-3-carbonitrile] | 61.5 ± 3.3 | 38.1 ± 2.8 | 58.3 ± 2.7 | 67.7 ± 3.5 | > 300 | 45.7 ± 3.2 | –
9 | COc1ccc(-c2cc(-c3ccccc3)[nH]c(=O)c2C#N)cc1OC1CCCC1 [Compound 12a, 4-(3-(Cyclopentyloxy)-4-methoxyphenyl)-2-oxo-6-phenyl-1,2-dihydropyridine-3-carbonitrile] | 79.8 ± 4 | 45.2 ± 3.4 | 71.6 ± 3.9 | 76 ± 3.6 | > 300 | 65.7 ± 4.1 | –
10 | COc1ccc(C2NC(=S)NC3=C2CCCCC3)cc1OC1CCCC1 (stereo not drawn) [Compound 5b, 4-(3-(Cyclopentyloxy)-4-methoxyphenyl)-1,3,4,5,6,7,8,9-octahydro-2H-cyclohepta[d]pyrimidine-2-thione] | 55.2 ± 3.1 | 59.1 ± 3.5 | 81.2 ± 4.3 | 61.1 ± 3.6 | – | 46.3 ± 3 | –
11 | COc1ccc(C=C2CCCC2=O)cc1OC1CCCC1 [Compound 3a, 2-(3-(Cyclopentyloxy)-4-methoxybenzylidene)cyclopentanone] | 51.4 ± 3 | 96 ± 5.2 | 56.1 ± 2.6 | > 100 | – | 59.1 ± 3.8 | –

Reference: PMC7144195, “Synthesis, antitumor activity, and molecular docking study of 2-cyclopentyloxyanisole derivatives: mechanistic study of enzyme inhibition” (Journal of Enzyme Inhibition and Medicinal Chemistry, 2020)
